Source: patent US5149793A, “Exo-3',4'-O-benzylidene-3"-demethylchartreusin and its salts” (Ishihara Sangyo Kaisha, Ltd., priority 1989, dated 1992)
Converted amounts (≈) assume the structure as drawn. Read-outs that look alike come from different tables or passages of the source.

Tests used:
[1] = Antibacterial activity (general statement); settings: result in words
B-16 melanoma cells = experiment: Antitumorous activity: growth inhibition of B-16 melanoma cells (Test Example 1); assay type: cell-based, mice; settings: Mus musculus, B16, 1 hour drug exposure at 37° C., then 48 hours incubation
Protocol: B-16 melanoma cells were suspended in RPMI 1640 medium containing 5% fetal bovine serum in a concentration of 4×10^4 cells/ml. The resulting suspension was placed in the 12 wells (1 ml/well) of a plate-cum-wells, wherein preliminary incubation was then carried out for 24 hours. A test drug was dissolved in a mixture of dimethyl sulfoxide and a culture medium of 5% serum - RPMI 1640 (1:3 in volume ratio). Thus, drug solutions having various respective drug concentrations were prepared. 20 μl each of these drug solutions were respectively added to the wells of the plate. The resulting drug-added suspensions were subjected to incubation at 37° C. for 1 hour. Subsequently, the incubated medium were removed from the respective wells, which were then washed once with the same culture medium as mentioned above. Thereafter, the same culture medium as mentioned above was freshly placed in each of the wells of the plate, followed by incubation at 37° C. for 48 hours.
The number of cells in each well was counted according to a customary method using a Coulter counter.
The values of growth control rate in the members of each drug-treated group, which members corresponding to the respective wells of the plate were culture broths respectively treated with drug solutions having various respective drug concentrations, were calculated by comparison with the growth rate of the drug-untreated group. The inhibitory concentration of each test drug in which the growth control rate was 50% (IC50) was calculated from the above-calculated values of growth control rate.

[2] = Antitumorous activity (general statement); settings: result in words
[3] = result in words; already known; cited from earlier work
[4] = result in words; already known; cited from earlier work; remark: listed apart in the source
[5] = test system: Gram-positive bacteria or Gram-negative bacteria; experiment: Growth inhibition of bacteria (general statement); assay type: cell-based; settings: exo-BDMC or its salts; result in words
[6] = test system: cells of experimental tumors of mice and the like, such as P-388 leukemia, L-1210 leukemia, B-16 melanoma, M-5076 sarcoma, Colon 26, and Lewis lung carcinoma; experiment: Activity against cells of experimental tumors (general statement); assay type: cell-based; settings: exo-BDMC or its salts; result in words
[7] = test system: Staphylococcus aureus 209P; experiment: Antibacterial activity, agar dilution method (Test Example 2); assay type: cell-based
Source text: (§1) The minimum inhibitory concentrations (MIC) of exo-BDMC against growth of various microorganisms were examined according to an agar dilution method.

[8] = test system: Bacillus megaterium IFO 12108; experiment: as above; assay type: cell-based; settings: Priestia megaterium, IFO12108
Source text: as §1

[9] = test system: Bacillus subtilis PCI 219; experiment: as above; assay type: cell-based; settings: PCI219
Source text: as §1

[10] = test system: Flavobacterium meningosepticum IFO 12535; experiment: as above; assay type: cell-based; settings: Elizabethkingia meningoseptica, IFO12535
Source text: as §1

[11] = parameters: species or system mice; settings: mouse, in vivo
Protocol: Exo-6-O-(N-trifluoroacetyl-β-aminoisobutyryl)-3',4'-O-benzylidenechartreusin was intravenously injected in a dose of 40 mg/kg into 160 DDY mice. 300 g of feces excreted within 24 hours after the intravenous injection were collected and ground down in a mortar. 1 liter of a mixed solvent (methanol:chloroform=1:1 in volume ratio) was added to the ground-down feces. The resulting mixture was stirred at 60° C. for 30 minutes to effect extraction, followed by separation of insolubles by filtration. The separated insolubles were admixed with 700 ml of the same mixed solvent as mentioned above to effect extraction again. The two resulting extracts were put together and concentrated under reduced pressure to obtain 9 g of crude exo-BDMC. The crude exo-BDMC was subjected to a purification operation by silica gel column chromatography (developing solvent: chloroform+methanol). The above-mentioned purification operation was repeated. An exo-BDMC-containing fraction obtained by the foregoing purification procedure was concentrated and then recrystallized from a mixed solvent (chloroform:methanol:ethyl acetate=2:1:1 in volume ratio) to obtain 50 mg of exo-BDMC. […]

Compound	antibacterial activity [1]	IC50 (B-16 melanoma cells) [µg/mL]	antitumorous activity [2]	antibacterial activity [3]	antitumorous activity [4]	capacity of inhibiting growth of bacteria [5]	activities against cells of experimental tumors [6]	MIC [7] [µg/mL]	MIC [8] [µg/mL]	MIC [9] [µg/mL]	MIC [10] [µg/mL]	presence in the excreta of mice (metabolite of exo-3',4'-O-benzylidenechartreusin derivatives) [11]
Cc1ccc2oc(=O)c3c(O)c4cccc(O[C@@H]5O[C@H](C)[C@H](O)[C@H](O)[C@H]5O[C@H]5O[C@H](C)[C@H](O)[C@H](O)[C@H]5O)c4c4oc(=O)c1c2c34 [3"-DMC, 3"-demethylchartreusin]	has antitumorous and antibacterial activities	11 (≈ 17.6 µM)	has antitumorous and antibacterial activities									
CO[C@H]1[C@@H](O)[C@@H](C)O[C@H](O[C@H]2[C@H](Oc3cccc4c(O)c5c(=O)oc6ccc(C)c7c(=O)oc(c34)c5c67)O[C@H](C)[C@H](O)[C@@H]2O)[C@@H]1O [chartreusin]		9.2 (≈ 14.4 µM)		has antibacterial and antitumorous activities	has antibacterial and antitumorous activities							
CO[C@H]1[C@@H](O)[C@@H](C)O[C@H](O[C@H]2[C@H](Oc3cccc4c(O)c5c(=O)oc6ccc(C)c7c(=O)oc(c34)c5c67)O[C@H](C)[C@@H]3OC(c4ccccc4)O[C@@H]32)[C@@H]1O (stereo partly drawn) [exo-BC, Exo-3',4'-O-benzylidenechartreusin, reference compound]		2.1 (≈ 2.88 µM)										
Cc1ccc2oc(=O)c3c(O)c4cccc(O[C@@H]5O[C@H](C)[C@@H]6OC(c7ccccc7)O[C@@H]6[C@H]5O[C@H]5O[C@H](C)[C@H](O)[C@H](O)[C@H]5O)c4c4oc(=O)c1c2c34 (stereo partly drawn) [exo-BDMC, exo-3',4'-O-benzylidene-3"-demethylchartreusin]	has antitumorous and antibacterial activities	0.9 (≈ 1.26 µM)	has antitumorous and antibacterial activities			strongly inhibiting growth of either Gram-positive bacteria or Gram-negative bacteria	exhibit activities against cells of experimental tumors	3.13 (≈ 4.38 µM)	1.56 (≈ 2.18 µM)	1.56 (≈ 2.18 µM)	1.56 (≈ 2.18 µM)	exists in the excreta of mice
